Reference: patent publication US20250109127A1, “METHODS OF USE OF PHENOXYPROPYLAMINE COMPOUNDS TO TREAT DEPRESSION” (Minerva Neurosciences, Inc., priority 2013, published 2025)
Values joined by “and” are separate entries in the source; they are usually repeats but may differ in a detail not shown here. Identical values can stand only once. Counter-ions that a name gives are not always drawn.

Test system: dopamine release in the rat prefrontal cortex
Test: Microdialysis: dopamine release in prefrontal cortex after I.P. administration
Format: in vivo
Conditions: for Dopamine release, individual animals / Dopamine release, MEAN: 0.3 mg/kg I.P.; for Dopamine release, individual animals: one column per animal R#11,12,18,23,29,30,17,24, hydrochloride; for Dopamine release, MEAN / DOPAMINE (% of respective basal) MEAN: n = 8; for DOPAMINE (% of respective basal) MEAN: SON-117 group 0.1 mg/kg I.P.
Experimental: The aim of the study was to evaluate, using microdialysis, the effects of an intraperitoneal (I.P.) administration in rats of three different doses of SON-117 on dopamine and its metabolites, serotonin and its metabolite (5-HIAA), and norepinephrine levels in prefrontal cortex.
Thirty-two adult male Wistar rats were used for the whole study (4 groups of eight animals planned for the study, Table 1).
Surgery was performed on rats weighing about 300 g at the beginning of the experiments. Rats were anaesthetized with Ketamine (50 mg/kg) & Xylazine (15 mg/kg) by intramuscular administration. The animals were placed in a stereotaxic apparatus in the flat-skull position at a constant setting of −3.3 mm between ear bars and the incisor bar. The animals were treated with a local anesthesic (xylocaine 1%, Astra Zeneca) and an analgesic (Temgesic, from Schering Plough, 0.05 mg/kg, s.c.). A rostrocaudal midline incision was made with a lancet to expose the dorsal skull surface. The “stereotaxic zero” was defined by the Bregma in accordance with Paxinos and Watson's atlas (1986). A hole was drilled in the skull with a drill and the meninges were pierced with a sterile needle to implant a CMA12 guide cannula which later received the dialysis probe.
Coordinates used for implanting guide cannula in prefrontal cortex from Bregma were anteroposterior 3.7 mm, mediolateral 0.8 mm, and dorsoventral −2 mm (top of the probe was at −5 mm). The guide cannula was fixed to the skull with two stainless steel screws (1.88 mm outside diameter) anchored. An application of dental cement was added. A plastic collar allowed each animal to be tethered to a Swivel assembly of the CMA 120 awake animal system. Following surgery, rats were kept in individual cages and allowed to recover for a minimum of 3-5 days before the experimentation. The rats were handled and put in plastic bowl for 10 min at least every day to habituate the animals to their new environment for the dialysis. An I.P. administration with saline was also performed every day.
Dialysis probes (CMA12/3 mm, membrane, 20 kD cut-off, Carnegie Medicine, Stockholm, Sweden), were carefully washed before inserting into the guide cannula. The wash was performed with the artificial cerebrospinal fluid (aCSF) medium (NaCl 147 mM, KCl 2.7 mM, CaCl2 1.2 mM, MgCl2 0.85 mM) at room temperature. The dialysis system was then equilibrated at 20° C. at a perfusion rate of 1 μl/min with a Carnegie pump (CMA100). All catheters (FEP tubing, internal volume of 1.2 μl/10 cm, and tubing adaptors) used for microdialysis were treated in the same conditions.
The probes duly prepared were inserted into the guide cannula and the CMA120 Swivel assembly secured to the animal using a plastic collar. Flow through the dialysis probe with aCSF was maintained at a rate of 1 μl/min during the whole experimentation. The first four fractions (corresponding to 2 hours) were discarded to avoid the effects of parenchymal disturbance and to ensure that an approximate steady-state level was reached. Fractions were then collected over a period of 8.5 h during which time the animals remained quiet. The dialysates were automatically collected with an autosampler (microfraction collector CMA 140, Carnegie Medicin) and stored at −80° C. until analysis. […] Perfusion was then maintained for 7 hours with aCSF. The dialysates (30 μl) were collected into 300 μl vials, transferred into dry ice and then kept frozen (−80° C.) until analysis. Frozen samples were shipped to a partner for analysis. At the end of the microdialysis study, a PBS with colored ink was perfused through the probe in order to visualize the dialyzed area.
Catecholamine assay: Concentrations of dopamine, DOPAC, HVA, 5-HIAA, 5-HT, and norepinephrin were determined for each sample by HPLC coupled with electrochemical detection.

[1] = T-30 min-T0 (before administration)
[2] = T-1 h 30-T-1 h (before administration)
[3] = T-1 h-T-30 min (before administration)

With `Cc1nnc(-c2cc3c(OC[C@@H](O)CN4CCC(c5ccc(Cl)c(Cl)c5)CC4)cccc3o2)o1` [SON-117, (S)-1-(4-(3,4-dichlorophenyl)piperidino)-3-(2-(5-methyl-1,3,4-oxadiazol-2-yl)benzo(b)furan-4-yloxy)-2-propanol hydrochloride] the “Dopamine release, individual animals” value (T5 h 30-T6 h) was 1190.31 % of respective basal and 66.72 % of respective basal and 285.31 % of respective basal and 29.48 % of respective basal and 247.57 % of respective basal and 111.91 % of respective basal and 52.03 % of respective basal and 128.48 % of respective basal, the “Dopamine release, MEAN” value (T5 h-T5 h 30) was 263.19 % of respective basal and the “Dopamine release, individual animals” value (T5 h-T5 h 30) was 611.23 % of respective basal and 37.39 % of respective basal and 1036.44 % of respective basal and 30.12 % of respective basal and 108.05 % of respective basal and 81.56 % of respective basal and 80.36 % of respective basal and 120.37 % of respective basal. For the same compound, the “Dopamine release, MEAN” value (T6 h 30-T7 h) was 297.55 % of respective basal, the “Dopamine release, individual animals” value (T6 h 30-T7 h) was 331.87 % of respective basal and 230.42 % of respective basal and 224.57 % of respective basal and 11.34 % of respective basal and 202.06 % of respective basal and 117.28 % of respective basal and the “Dopamine release, MEAN” value (T6 h-T6 h 30) was 267.65 % of respective basal. The “Dopamine release, individual animals” value (T6 h-T6 h 30) was 879.91 % of respective basal and 122.45 % of respective basal and 101.84 % of respective basal and 10.68 % of respective basal and 188.10 % of respective basal and 103.08 % of respective basal and 135.89 % of respective basal and 599.24 % of respective basal, the “Dopamine release, MEAN” value [1] was 100.22 % of respective basal and the “Dopamine release, MEAN” value [2] was 104.26 % of respective basal. The “Dopamine release, MEAN” value [3] was 98.66 % of respective basal, the “dopamine levels, increase (not statistically significant)” value (SON-117 0.1 mg/kg I.P., from 4.5 h to 7 h) was 353% and the “dopamine levels, increase (not statistically significant)” value (SON-117 0.1 mg/kg I.P., from T1.5 h and 2.5 h) was 287%. For the same compound, the “dopamine levels, increase (not statistically significant)” value (SON-117 0.3 mg/kg I.P., from 5.5 h to 7 h) was 298%, the “dopamine levels, slight increase (not statistically significant)” value (SON-117 3 mg/kg IP, at 1.5 h) was 169% and the “dopamine levels, slight increase, max. (not statistically significant)” value (SON-117 3 mg/kg IP, from 6 h to 7 h) was 167%. For the same compound, the “release of dopamine, trend” value (SON-117 0.1 and 0.3 mg/kg, from 5.5 h) was “trend for an increased release”, the “dopamine, difference to the citalopram group (two-way ANOVA)” value (SON-117 at the three doses tested, in function of time) was “no significant differences” and the “DOPAMINE (% of respective basal) MEAN” value (T0-T30 min) was 133.37 % of respective basal. The “DOPAMINE (% of respective basal) MEAN” value (T30-T1 h) was 103.29 % of respective basal, the “DOPAMINE (% of respective basal) MEAN” value (T1 h 30-T2 h) was 151.81 % of respective basal and the “DOPAMINE (% of respective basal) MEAN” value (T1 h-T1 h 30) was 123.06 % of respective basal. For the same compound, the “DOPAMINE (% of respective basal) MEAN” value (T2 h 30-T3 h) was 138.45 % of respective basal, the “DOPAMINE (% of respective basal) MEAN” value (T2 h-T2 h 30) was 286.96 % of respective basal and the “DOPAMINE (% of respective basal) MEAN” value (T3 h 30-T4 h) was 155.83 % of respective basal. The “DOPAMINE (% of respective basal) MEAN” value (T3 h-T3 h 30) was 150.01 % of respective basal, the “DOPAMINE (% of respective basal) MEAN” value (T4 h 30-T5 h) was 240.84 % of respective basal and the “DOPAMINE (% of respective basal) MEAN” value (T4 h-T4 h 30) was 215.81 % of respective basal. The “DOPAMINE (% of respective basal) MEAN” value (T5 h 30-T6 h) was 188.21 % of respective basal, the “DOPAMINE (% of respective basal) MEAN” value (T5 h-T5 h 30) was 183.94 % of respective basal and the “DOPAMINE (% of respective basal) MEAN” value (T6 h 30-T7 h) was 353.25 % of respective basal. For the same compound, the “DOPAMINE (% of respective basal) MEAN” value (T6 h-T6 h 30) was 226.43 % of respective basal, the “DOPAMINE (% of respective basal) MEAN” value [1] was 105.18 % of respective basal and the “DOPAMINE (% of respective basal) MEAN” value [2] was 100.9 % of respective basal. For the same compound, the “DOPAMINE (% of respective basal) MEAN” value [3] was 91.46 % of respective basal.
